Laboratory results published in ChEMBL document CHEMBL1158860, “New Diosgenin Glycosides from Costus afer” (J Nat Prod, 1997).
Activity calls are given as the source filed them. The calls are words filed in the database; no cut-off is given here.

The molecules below were run on HL-60 (assay: Potentiation of cisplatin cytotoxicity against human HL60 cells).
Format: functional, cell-based

Q: For `CC(=O)O[C@@H]1[C@@H](O)[C@@H](O)[C@H](O[C@H]2[C@H](O[C@H]3CC[C@@]4(C)C(=CC[C@H]5[C@@H]6C[C@@H]7O[C@]8(CC[C@@H](C)CO8)[C@@H](C)[C@@H]7[C@@]6(C)CC[C@@H]54)C3)O[C@H](CO)[C@@H](O[C@@H]3OC[C@](O)(CO)[C@H]3O)[C@@H]2O)O[C@H]1C`, which Activity is on record?
A: Its Activity is “inactive”.

Q: Which Activity does the source give for `C[C@@H]1CC[C@@]2(OC1)O[C@H]1C[C@H]3[C@@H]4CC=C5C[C@@H](O[C@@H]6O[C@H](CO)[C@@H](O[C@@H]7OC[C@](O)(CO)[C@H]7O)[C@H](O)[C@H]6O)CC[C@]5(C)[C@H]4CC[C@]3(C)[C@H]1[C@@H]2C` here?
A: Its Activity is “inactive”.

Q: For `C[C@@H]1CC[C@@]2(OC1)O[C@H]1C[C@H]3[C@@H]4CC=C5C[C@@H](O[C@@H]6O[C@H](CO)[C@@H](O[C@@H]7O[C@@H](C)[C@H](O)[C@@H](O)[C@H]7O)[C@H](O)[C@H]6O[C@@H]6O[C@@H](C)[C@H](O)[C@@H](O)[C@H]6O)CC[C@]5(C)[C@H]4CC[C@]3(C)[C@H]1[C@@H]2C`, which Activity is on record?
A: The Activity was “inactive”.

Q: With `C[C@@H]1CC[C@@]2(OC1)O[C@H]1C[C@H]3[C@@H]4CC=C5C[C@@H](O[C@@H]6O[C@H](CO)[C@@H](O[C@@H]7OC[C@](O)(CO)[C@H]7O)[C@H](O)[C@H]6O[C@@H]6O[C@@H](C)[C@H](O)[C@@H](O)[C@H]6O)CC[C@]5(C)[C@H]4CC[C@]3(C)[C@H]1[C@@H]2C` as the molecule, how does the Activity read?
A: The Activity was “inactive”.
